{
  "source": "patent US5840697A",
  "about": "“Peptide inhibitors of calmodulin” (Torrey Pines Institute for Molecular Studies, priority 1996, dated 1998)",
  "key": {"[1]": {"target": "calmodulin (Homo sapiens, UniProt P0DP23)", "assay": "calcium-dependent phosphodiesterase assay (calmodulin activity)", "format": "biochemical", "in_short": "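Calmodulin (5 units) stimulation of Ca2+-activated phosphodiesterase measured by coupling cAMP→5'-AMP to 5'-nucleotidase, with released Pi read at 660 nm after ammonium molybdate reaction.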"}, "[2]": {"tested_on": "normal rat kidney (NRK) cells", "assay": "DNA synthesis ([3H]-thymidine incorporation) in cell culture", "format": "cell-based", "conditions": "added at 5 hr", "protocol": "Following the methods described in Lopez-Girona et al., Cell Calcium, 18:30-40 (1995), which is incorporated herein by reference, the effect of calmodulin inhibitory peptides on DNA synthesis was investigated. Specifically, peptides were added to culture media and assessed for their ability to inhibit the progression of normal rat kidney (NRK) cells into the S phase of the cell cycle; the DNA synthesis phase into the cell growth cycle. Such inhibition has been shown for existing anti-calmodulin drugs such as W13.\nNRK cells were made quiescent by growing them to confluence in Dulbecco's minimum essential medium supplemented with 5% fetal calf serum (FCS), and then kept for 3-4 days in the same medium but with only 0.5% FCS. To allow them to re-enter the cell cycle, quiescent cells were trypsinized and subcultured at a lower density in fresh medium supplemented with 5% FCS.\nDNA synthesis was analyzed by the measurement of [^3 H]-thymidine into whole cell DNA. NRK cells (10^5 per 35 mm plate) were pulse labeled for 1 hr with [methyl-^3 H]-thymidine (5 Ci/mmol) at 4 μCi/ml in Dulbecco's minimum essential medium supplemented with 5% FCS. Precipitation and solubilization of DNA was carried out as described in Cripps-Wolfman et al., J. Biol. Chem., 264:19478-19486 (1989), which is incorporated herein by reference.\nThe NRK cells stimulated to proliferate by addition of 5% FCS enter synchronously into the cell cycle and start the S phase after 12 hr reaching a maximum between 18 to 20 hr. The peptides were added at 5 hr (time at which the cells have already reenter the G1 phase). […] Similar results were found between the (D)-amino acid peptides and their (L)-counterpart."}, "[3]": {"tested_on": "rat liver cells", "assay": "in vivo rat model: DNA synthesis of rat liver cells after partial hepatectomy", "conditions": "intravenous injection 5 hours after partial hepatectomy, measured 24 hours post hepatectomy", "from_the_text": "The effect that calmodulin inhibitors have on DNA synthesis were also studied in vivo in a rat model. Rat liver cells are a useful in vivo system for studying synchronized cells and the cell cycle. By partial hepatectomy, the hepatocyte quiescent cells present in normal adult rat liver can be stimulated to enter the replicative cell cycle and the effect of inhibitors on the cycle analyzed. This example provides the effect of the subject calmodulin inhibitory peptides on the DNA synthesis of rat liver cells in partial hepatectomy stage following intra venal injection of the peptides.\nMale Sprague-Dawley rats ([…]; 2 rats per peptide or control) were fasted overnight. Partial hepatectomies were carried out under Ketolar anesthesia (Parke-Davis; Ann Arbor, Mich.), following the procedure described by Higgins and Anderson in Arch. Pathol., 12:186-202 (1931), which is incorporated herein by reference. […] DNA synthesis was assessed by measuring the radioactivity incorporated into DNA following an intraperitoneal injection (0.5 mCi/g body weight) of [^3 H] thymidine 1 hr prior to killing the rat and at 23 hours post hepatectomy. […] The liver tissue was homogenized in 10% trifluoroacetic acid at 4° C. and the DNA extracted and its radioactivity measured following the procedure described by Burton, Biochem. J., 62:315-320 (1956), which is incorporated herein by reference. […]"}},
  "note": "Like-named read-outs stand apart in the source and are kept apart here. Square brackets hold non-standard residues; d marks the D form. Peptide text beside a SMILES is read from it.",
  "data": [
    {"compound": "CC[C@@H](C)[C@@H](NC(=O)[C@@H](CCCNC(=N)N)NC(=O)[C@@H](Cc1c[nH]c2ccccc12)NC(=O)[C@@H](CC(C)C)NC(C)=O)C(=O)N[C@H](CC(C)C)C(=O)N[C@H](Cc1c[nH]c2ccccc12)C(N)=O", "note": "[Ac-(D)Leu-(D)Trp-(D)Arg-(D)Ile-(D)Leu-(D)Trp-NH2] (Ac-[dL][dW][dR][dI][dL][dW]-NH2)", "values": [
      {"measurement": "IC50", "setting": "[1]; Table I, assayed at 75, 50 and 12.5 μM, average of repeated assays, read-out: Average IC50", "value": 5.4, "unit": "µM"},
      {"measurement": "IC50", "setting": "[1]; Table III, in the presence of calmodulin, read-out: IC50 (μM) for calmodulin", "value": 7.1, "unit": "µM"},
      {"measurement": "SPECIFICITY", "setting": "[1]; comparison of IC50 for phosphodiesterase with IC50 for calmodulin", "value": 17},
      {"measurement": "% DNA SYNTHESIS", "setting": "[2]; 7.5 μM", "value": 59, "unit": "%"},
      {"measurement": "% DNA SYNTHESIS", "setting": "[2]; 15 μM", "value": 25, "unit": "%"},
      {"measurement": "% DNA SYNTHESIS", "setting": "[3]", "value": 50, "unit": "%"}
    ]}
  ]
}
